Laboratory results reported in patent publication US10131691B2, “Compositions and methods for specific regulation of pyruvate dehydrogenase kinase” (THE BOARD OF TRUSTEES OF THE LELAND STANFORD JUNIOR …, priority 2011, dated 2018).
No end group written: not given here.

Tests used:
[1] = test system: hearts subjected to I/R; test: Ex vivo cardiac protection from ischemia/reperfusion (Langendorff; infarct size, CPK release); design: species or system rat
Description: (§1) An ex vivo model of acute ischemic heart damage was used, which involves a 30 min equilibration period, followed by 30 min of global ischemia, which in turn is followed by 60 min of reperfusion. The hearts were perfused with 1 μM TAT or TAT-conjugated peptide. Normoxic control hearts were subjected to 90 min perfusion in the absence of ischemia. Coronary effluent was collected to determine creatine phosphokinase (CPK) release during the first 30 min of the reperfusion period. At the end of the reperfusion period, hearts were sliced into 1-mm-thick transverse sections and incubated in triphenyltetrazolium chloride solution (TTC, 1% in phosphate buffer, pH 7.4) at 37° C. for 15 min. Infarct size was expressed as a percentage of the risk zone (equivalent to total LV muscle mass) (methods described in Brandman et al., 2007, J. Biol. Chem., 282:4113-4123; Inagaki et al., 2003, Circulation, 108:869-875). […]
First, I/R-induced infarct size after treatment with ΨPDK or δV1-1 (Inagaki et al., 2003, Circulation, 108:869-875), was smaller than that in hearts treated with the control peptide or with ΨδRACK, the δPKC-specific activator or with δV1-5 (FIG. 6A). Second, similar data were obtained when determining the levels of released creatine phosphokinase (CPK), as a marker of myocardial infarction; CPK levels in the ΨPDK- or δV1-1-treated hearts were similar and were lower than those after treatment with control peptide, ΨδRACK or δV1-5 (FIG. 6B).
To begin determining the contribution of each of the amino acids on the effect of the peptide, Alanine scanning was used (Brunel et al., 2006, J. Virol., 80:1680-1687; Chen et al., J. Pep. Res., 2000, 56:147-156; Brems et al., 1992, Prot. Eng., 5:527-533) (substituting individual amino acid with an alanine). The resultant ΨPDK peptide analogs were then used in the same model of myocardial infarction, using CPK release and JNK phosphorylation as markers for cardiac injury. CPI release into the perfusates and pJNK in the hearts were determined after I/R in the presence of respective peptides and compared to the levels in hearts subjected to I/R in the presence of the control peptide. None of the peptides having a substitution had any significant biological activity (Table 1).

[2] = test system: E1 subunit of PDH; test: 2-D IEF phosphorylation of PDH E1 subunit in hearts after I/R; design: species or system rat; conditions: cardiac I/R
Description: as §1
As described above, δPKC phosphorylation of PDK following cardiac ischemia and reperfusion leads to the phosphorylation and a decline in the activity of pyruvate dehydrogenase (PDH) (Churchill et al., 2005, Circ. Res., 97:78-85). […] Since ΨPDK is derived from the PDK homologous sequence in δPKC, it was next determined whether PDK phosphorylation is affected by ΨPDK treatment.

[3] = target: T1, δPKC phosphorylation of PDK (Homo sapiens, UniProt Q05655); test: In vitro kinase assay: δPKC phosphorylation of PDK2; format: biochemical; conditions: recombinant δPKC and PDK2
T1 construct: purchased Invitrogen (δPKC); Abnova (PDK2)
T1 sequence (Q05655 whole entry): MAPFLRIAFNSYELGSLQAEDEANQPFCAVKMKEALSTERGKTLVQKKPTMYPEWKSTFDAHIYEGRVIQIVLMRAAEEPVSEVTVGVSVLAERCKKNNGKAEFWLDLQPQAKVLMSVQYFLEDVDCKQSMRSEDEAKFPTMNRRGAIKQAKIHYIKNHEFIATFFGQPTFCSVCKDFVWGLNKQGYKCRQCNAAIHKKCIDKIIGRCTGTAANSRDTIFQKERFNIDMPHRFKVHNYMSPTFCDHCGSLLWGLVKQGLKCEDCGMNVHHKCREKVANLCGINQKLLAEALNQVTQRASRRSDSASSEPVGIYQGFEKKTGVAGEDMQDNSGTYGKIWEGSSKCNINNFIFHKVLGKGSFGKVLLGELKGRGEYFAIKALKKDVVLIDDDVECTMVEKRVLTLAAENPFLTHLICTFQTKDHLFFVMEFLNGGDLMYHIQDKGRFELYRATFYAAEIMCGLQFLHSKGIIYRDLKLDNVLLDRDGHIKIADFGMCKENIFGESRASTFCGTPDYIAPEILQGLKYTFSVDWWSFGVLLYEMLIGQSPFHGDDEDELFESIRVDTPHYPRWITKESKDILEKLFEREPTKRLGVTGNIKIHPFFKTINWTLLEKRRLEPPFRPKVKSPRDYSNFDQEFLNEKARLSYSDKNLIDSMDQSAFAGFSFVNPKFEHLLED
Description: In vitro phosphorylation assay. To determine the level of PDK and Drp1 phosphorylation in presence of ΨPDK, δPKC recombinant protein (Invitrogen, Calif., USA; 200 ng) was incubated with or without peptides for 10 min, then 100 ng recombinant PDK2 (Abnova, Taiwan) or Drp1 (Abnova, Taiwan) were added for 20 min at 37° C. in 40 μl of kinase buffer (20 mM Tris-HCl, 20 mM MgCl2, 1 μM DTT, 25 μM ATP, 1 mM CaCl2) containing 5 μCi [γ^32P] ATP (4500 Ci/mmol, ICN) in the presence of the low amount of PKC activators, phosphatidylserine (PS, 1.25 μg) and 1,2 dioleoyl sn-glycerol (DG, 0.04 μg). The kinase assay was terminated by adding loading Laemmli buffer containing 5% SDS and the samples were loaded on a 10% PAGE-SDS polyacrylamide gel, and the levels of phosphorylated PDK2 protein were determined by exposing the nitrocellulose to autoradiography. The nitrocellulose was also reprobed using respective antibodies for loading controls.
Since ΨPDK is derived from a PDK-like sequence in δPKC (FIG. 1B), it was reasoned that this peptide should act as a competitive inhibitor, selective for δPKC phosphorylation of PDK. To test this hypothesis directly, an in vitro kinase assay in which the ability of δPKC to phosphorylate PDK is determined was used.

[4] = ex vivo I/R, vs control peptide, ΨδRACK or δV1-5

For “ALSTER (not fully specified (C-terminus); also: TAT47-57 conjugated via disulfide) [ΨPDK, for cells and hearts conjugated to TAT47-57 via disulfide bond]”, the “cardioprotection / biological activity in ex vivo I/R model (in words)” value ([1]; CPK release and JNK phosphorylation as markers) was “exert cardio-protective effects”, the “CPK (u/L)” value ([1]; ex vivo I/R, release into perfusate, 1 μM peptide) was 335 ± 520 u/L and the “CPK levels (in words)” value [1, 4] was “lower”. For the same substance, the I/R-induced infarct size [1, 4] was “smaller”, the “phosphorylation of E1 subunit of PDH” value [2] was “did not occur” and the “inhibition of δPKC phosphorylation of PDK” value [3] was ~30%.
